Results taken from PMC10221466, “Isolation of Nocuolin A and Synthesis of New Oxadiazine Derivatives. Design, Synthesis, Molecular Docking, Apoptotic Evaluation, and Cathepsin B Inhibition” (Marine Drugs, 2023).
“Also recorded” adds a separate entry of the source. Read-outs that look alike come from different tables or passages of the source. Starred links: 1 amine or outer side, 2 acyl side, 3 side chain; linkers in the order of their positions; H or OH if unused. Positions of bridges follow the written chain, without caps; N, C: chain ends. Non-standard residues stand in square brackets, D forms with d. Residues, ends and D or L forms follow the SMILES beside them. Chains are numbered I, II in the order given. Actinocin(9to1) = Cc1c2oc3c(C)ccc(C(=O)[*:1])c3nc-2c(C(=O)[*:2])c(N)c1=O; NMeV = CN[C@H](C(=O)O)C(C)C; Sar = CNCC(=O)O

Legend:
cathepsin B [1] = target: T1, cathepsin B (Mus musculus, UniProt P10605); assay: Inhibition of cathepsin B activity, TKPTS cells; assay type: cell-based; conditions: TKPTS non-tumour cells
T1 construct: Cathepsin B activity in the cell medium; endogenous in cells; host or cells: Hepa-1c1c7 (CRL-2026)
Experimental: (§1) For the determination of the cathepsin B’s inhibition activity, its superficial expression in two tumour cell lines (ACHN and Hepa-1c1c7 cells) and two non-tumour cell lines (TKPTS and FL83B cells) was evaluated by flow cytometry.
(§2) Cathepsin B activity in the cell medium was evaluated by using a fluorogenic substrate: Abz-Gly-Ile-Val-Arg~Ala-Lys(Dnp)-OH. This peptide substrate was purchased from Bachem AG (Bubendorf, Switzerland). The reactions were performed at 40 °C for 10 min [38]. Stock solutions of inhibitory compounds were prepared in DMSO (in a concentration of 10 mM). From these stock solutions, increasing concentrations of the inhibitory compounds (1 and 100 nM) were prepared. […] Fluorescence was measured with excitation/emission wavelength values of 320 and 420 nm, respectively, using the Cary Eclipse fluorescence spectrophotometer (Agilent Technologies, Melbourne, Australia).
(§3) All analyses were performed using version 9.0.0 of GraphPad Prism Software LLC from 1994–2020 (www.graphpad.com, accessed on 2 January 2023). Using non-linear regression, the values of 50% cytotoxic concentration (CC50) and 50% inhibitory concentration (IC50) were determined. In addition, a one-way ANOVA statistical analysis was performed to assess whether the differences between the values were statistically significant (p < 0.05; p < 0.001, Tukey’s multiple comparisons test). All experiments were performed in triplicate.

cathepsin B [2] = target: T1, cathepsin B; assay: Inhibition of cathepsin B activity, FL83B cells; assay type: cell-based; conditions: FL83B non-tumour cells
Experimental: as §1, §2, §3

cathepsin B [3] = target: T1, cathepsin B; assay: Inhibition of cathepsin B activity, Hepa-1c1c7 cells; assay type: cell-based; conditions: Hepa-1c1c7 tumour cells
Experimental: as §1, §2, §3

C57BL/6 mice = assay: Acute toxicity in vivo; conditions: 4 mg/kg i.p.; for Physical aspect and weight after the third day of treatment: mice, day 3
Experimental: Adult male C57BL/6 mice weighing 25–35 g were purchased from the Centre for Laboratory Animals of the Faculty of Medicine from the University Autónoma of Madrid (Spain) and maintained under controlled temperature conditions (22 ± 2 °C), with a constant 12 h light-dark cycle and with access to food and water ad libitum.
Five groups (five mice per group) were selected for this study.
All animals were kept under observation for 7 days, during which their physical aspect, behaviour, and the number of deaths were recorded daily. The negative control (normal saline solution) received only the same quantity of the vehicle (distilled water). These tests were carried out in triplicate. All the surviving animals were euthanised at the end of the study, and their vital organs were individually observed by necropsy and checked for overt pathology.

[4] = SRB viability assay, TKPTS cells; assay type: cell-based; conditions: mouse, TKPTS non-tumour cell line, hypoxic conditions (1% O2)
Source text: (§4) Two tumour cell lines, ACHN (Human kidney carcinoma) and Hepa-1c1c7 (Human liver carcinoma), and two non-tumour cell lines, TKPTS (Mus musculus kidney normal) and FL83B (Mus musculus liver normal), were used in this study. The cell lines were purchased by the company VALORALIA I MÁS D, SL. From LGC Standards, which is the exclusive distributor of American Type Culture Collection (ATTC) products. […] Likewise, Hepa-1c1c7 (CRL-2026 BSL 1) is an epithelial cell line that was isolated from the liver of a patient with hepatoma. On the other hand, TKPTS (CRL-3361 BSL 2) is a normal cell line with epithelial-like morphology that was isolated in 1997 from the proximal tubule of a mouse kidney. Finally, FL83B (CRL-2390 BSL 1) is a hepatocyte cell that was isolated from the liver of a 15- to 17-day-old foetal mouse in 1969. The cells were maintained in a Dulbecco's modified eagle medium (DMEM, Sigma-Aldrich St. Louis, USA) supplemented with 2 mM L-glutamine (AppliChem, Denmark), 10% foetal bovine serum (FBS, Sigma-Aldrich, USA), 100 units/mL of penicillin and 100 µg/mL of streptomycin (Fisher Scientific, Pittsburgh, USA) in culture flasks, in an incubator with a humidified atmosphere containing 5% CO2, at 37 °C under hypoxic conditions (1% O2), managing to mimic the tumour microenvironment in vivo.
(§5) Cells (200 µL, 2 × 10^4 cells/well) were seeded in 96-well plates and were cultured for 12 h at 37 °C under hypoxic conditions (1% O2). Subsequently, the samples dissolved in dimethyl sulfoxide (DMSO ≥ 99.9% Sigma-Aldrich, CAS Number 67-68-5) were added at different concentrations for 72 h. Actinomycin D (ACT ≥ 95% Sigma-Aldrich, CAS Number 50-76-0) was used as a positive control. Cells were then fixed with 10% trichloroacetic acid (TCA ≥ 99.0% Sigma-Aldrich, CAS Number 76-03-9) for 1 h at 4 °C. After washing with distilled water, 100 μL of 0.4% sulforhodamine B (SRB Dye content 75 % Sigma-Aldrich, CAS Number 3520-42-1) in 1% acetic acid (AcOH ≥ 99.0% Sigma-Aldrich, CAS Number 64-19-7) were added to each well and incubated for 20 min. After washing them three times with 1% TCA, the plates were air-dried, and stained cells were dissolved with 100 μL/well of 10 mM unbuffered tris(hydroxymethyl)aminomethane (Tris Base ≥ 99.9% Sigma-Aldrich, CAS Number 77-86-1). The optical density of the microplates was measured at 540 nm, using an ELISA plate reader, SpectraMax® i3, Molecular Devices.
(§6) All analyses were performed using version 9.0.0 of GraphPad Prism Software LLC from 1994–2020 (www.graphpad.com, accessed on 2 January 2023). Using non-linear regression, the values of 50% cytotoxic concentration (CC50) and 50% inhibitory concentration (IC50) were determined. […]

[5] = SRB viability assay, FL83B cells; assay type: cell-based; conditions: mouse, FL83B non-tumour cell line, hypoxic conditions (1% O2)
Source text: as §4, §5, §6

ACHN cells = assay: SRB viability assay, ACHN cells; assay type: cell-based; conditions: Homo sapiens, 72 h
Source text: as §4, §5, §6

Hepa-1c1c7 cells = assay: SRB viability assay, Hepa-1c1c7 cells; assay type: cell-based; conditions: Mus musculus
Source text: as §4, §5, §6

cathepsin B [6] = target: T2, cathepsin B (Homo sapiens, UniProt P07858); assay: Inhibition of cathepsin B activity, ACHN cells; assay type: cell-based; conditions: ACHN tumour cells
T2 construct: Cathepsin B activity in the cell medium; endogenous in cells; host or cells: ACHN (CRL-1611)
Experimental: as §1, §2, §3

[7] = TKPTS normal kidney proximal tubule cells
[8] = FL83B normal foetal liver hepatocyte cells
[9] = ACHN tumour cell line, SRB, hypoxic conditions (1% O2), read-out: CC50
[10] = Hepa-1c1c7 tumour cell line, SRB, 72 h, hypoxic conditions (1% O2), read-out: CC50

T1 sequence (P10605 80-339): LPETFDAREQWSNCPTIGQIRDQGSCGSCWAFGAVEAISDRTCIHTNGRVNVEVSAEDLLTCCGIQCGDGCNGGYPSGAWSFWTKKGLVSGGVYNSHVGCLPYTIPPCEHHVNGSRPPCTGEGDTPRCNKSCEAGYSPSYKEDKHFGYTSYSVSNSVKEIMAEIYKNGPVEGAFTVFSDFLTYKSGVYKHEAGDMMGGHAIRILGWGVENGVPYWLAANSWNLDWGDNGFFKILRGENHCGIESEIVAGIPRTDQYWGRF

Row | SMILES | Ki (cathepsin B [1]) | Ki (cathepsin B [2]) | Ki (cathepsin B [3]) | Physical aspect and weight after the third day of treatment (C57BL/6 mice) | CC50 at 72 h [4] | CC50 at 72 h [5] | CC50 (ACHN cells; ACHN) | CC50 (Hepa-1c1c7 cells; Hepa-1c1c7, 72 h) | CC50 at 72 h [4, 7] | CC50 at 72 h [5, 8] | CC50 (ACHN cells; [9]) | CC50 (Hepa-1c1c7 cells; [10]) | Ki (cathepsin B [6]) | In vivo toxicity (C57BL/6 mice; murine model, 4 mg/kg)
1 | CCCNC(=O)[C@H]1O[C@@H]1C(=O)N[C@H](C(=O)N1CCC[C@H]1C(=O)O)[C@@H](C)CC (relative stereo) [CA 074, reference compound] | 2.39 ± 0.12 nM | 3.08 ± 0.19 nM | 5.99 ± 0.64 nM | active and showed no apparent weight loss |  |  |  |  |  |  |  |  |  | 
2 | Cc1c2oc3c(C)ccc(C(=O)N[C@@H]4C(=O)N[C@H](C(C)C)C(=O)N5CCC[C@H]5C(=O)N(C)CC(=O)N(C)[C@@H](C(C)C)C(=O)O[C@@H]4C)c3nc-2c(C(=O)N[C@@H]2C(=O)N[C@H](C(C)C)C(=O)N3CCC[C@H]3C(=O)N(C)CC(=O)N(C)[C@@H](C(C)C)C(=O)O[C@@H]2C)c(N)c1=O [Actinomycin, Actinomycin D, reference compound] (I: T[dV]P[Sar][NMeV] / II: T[dV]P[Sar][NMeV]; ester I:1-I:C, II:1-II:C; linker I:N-II:N via Actinocin(9to1)) |  |  |  |  | 3 ± 0.5 nM | 6 ± 0.6 nM | 9 ± 0.6 nM | 14 ± 0.6 nM |  |  |  |  |  | 
3 | CCCCCC1=NN(C(=O)CCO)O[C@H](CCCCC)C1 [Compound 1, 1-[(6R)-5,6-dihydro-4,6-dipentyl-2H-1,2,3-oxadiazin-2-yl]-3-hydroxypropan-1-one] | 2.13 ± 0.04 nM | 2.61 ± 0.02 nM | 3.37 ± 0.24 nM | active and showed no apparent weight loss |  |  |  |  | 1100 ± 50 nM | 2360 ± 100 nM | 760 ± 90 nM | 1250 ± 60 nM | 3.06 ± 0.13 nM | 
4 | CCCCCC1=NN(C(=O)CCOC(C)=O)O[C@H](CCCCC)C1 [Compound 2, 3-[(6R)-5,6-dihydro-4,6-dipentyl-2H-1,2,3-oxadiazin-2-yl]-3-oxopropyl acetate] | 0.49 ± 0.05 nM | 0.66 ± 0.09 nM | 6.59 ± 0.65 nM | weight loss and signs of disease (bowed backs, loss of hair shine, and slow movements) |  |  |  |  | 1060 ± 40 nM | 1940 ± 80 nM | 220 ± 30 nM | 630 ± 50 nM | 5.67 ± 0.68 nM | 
5 | CCCCCC1=NN(C(=O)CCOC(=O)CCC(=O)O)O[C@H](CCCCC)C1 [Compound 3, 4-{3-[(6R)-5,6-Dihydro-4,6-dipentyl-2H-1,2,3-oxadiazin-2-yl]-3-oxopropoxy}-4-oxobutanoic acid] | 3.29 ± 0.4 nM | 4.55 ± 0.81 nM | 1.76 ± 0.24 nM | active and showed no apparent weight loss |  |  |  |  | 1620 ± 60 nM | 2800 ± 90 nM | 730 ± 100 nM | 910 ± 80 nM | 1.52 ± 0.13 nM | no in vivo toxicity; also recorded: did not show toxicity in vivo
